From ChEMBL document CHEMBL2169864, “Binding Model for the Interaction of Anticancer Arylsulfonamides with the p300 Transcription Cofactor” (ACS Med Chem Lett, 2012)
Activity calls are given as the source filed them. No cut-off for these calls is given here.

Experiments:
[1] = target: T1, Histone acetyltransferase p300 (Homo sapiens, UniProt Q09472); assay: Binding affinity to recombinant P300 CH1 domain assessed as dissociation constant by surface plasmon resonance analysis
[2] = target: T1, Histone acetyltransferase p300; assay: Binding affinity to GST-tagged recombinant P300 CH1 domain expressed in Escherichia coli BL21 by Coomassie staining-based gel electrophoresis; conditions: tested as the 14C-labelled form
[3] = target: T1, Histone acetyltransferase p300; assay: Binding affinity to P300 in human LN229 cell nuclear extracts by Western blot analysis
[4] = target: Hypoxia-inducible factor 1-alpha (Homo sapiens) (UniProt Q16665); assay: Binding affinity to HIF1alpha in human LN229 cell nuclear extracts by Western blot analysis
Hypoxia-inducible factor 1-alpha (Homo sapiens), sequence (Q16665 whole entry, looked up): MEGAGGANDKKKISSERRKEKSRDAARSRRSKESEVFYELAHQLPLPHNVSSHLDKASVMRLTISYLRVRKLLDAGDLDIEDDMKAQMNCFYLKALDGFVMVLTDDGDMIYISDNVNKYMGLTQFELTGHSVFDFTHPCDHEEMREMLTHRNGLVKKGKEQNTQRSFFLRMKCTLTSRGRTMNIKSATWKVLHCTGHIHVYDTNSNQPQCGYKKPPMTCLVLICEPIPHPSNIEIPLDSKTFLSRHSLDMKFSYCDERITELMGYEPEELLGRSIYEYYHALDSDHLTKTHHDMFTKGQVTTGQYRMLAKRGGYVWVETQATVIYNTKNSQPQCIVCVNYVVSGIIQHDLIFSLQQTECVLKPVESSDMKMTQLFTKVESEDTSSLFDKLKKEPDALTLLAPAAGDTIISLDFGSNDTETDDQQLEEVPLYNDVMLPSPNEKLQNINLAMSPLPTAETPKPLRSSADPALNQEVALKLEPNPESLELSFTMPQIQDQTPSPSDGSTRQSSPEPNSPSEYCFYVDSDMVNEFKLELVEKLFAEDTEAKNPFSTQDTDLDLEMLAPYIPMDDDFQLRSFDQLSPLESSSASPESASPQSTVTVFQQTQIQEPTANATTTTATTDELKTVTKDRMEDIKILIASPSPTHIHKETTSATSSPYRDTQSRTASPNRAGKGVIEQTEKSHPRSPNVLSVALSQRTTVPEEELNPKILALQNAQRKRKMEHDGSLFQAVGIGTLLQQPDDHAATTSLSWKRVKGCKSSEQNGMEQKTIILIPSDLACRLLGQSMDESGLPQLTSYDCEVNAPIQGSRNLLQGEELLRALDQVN

T1 sequence (Q09472 whole entry, the tested form may be a part): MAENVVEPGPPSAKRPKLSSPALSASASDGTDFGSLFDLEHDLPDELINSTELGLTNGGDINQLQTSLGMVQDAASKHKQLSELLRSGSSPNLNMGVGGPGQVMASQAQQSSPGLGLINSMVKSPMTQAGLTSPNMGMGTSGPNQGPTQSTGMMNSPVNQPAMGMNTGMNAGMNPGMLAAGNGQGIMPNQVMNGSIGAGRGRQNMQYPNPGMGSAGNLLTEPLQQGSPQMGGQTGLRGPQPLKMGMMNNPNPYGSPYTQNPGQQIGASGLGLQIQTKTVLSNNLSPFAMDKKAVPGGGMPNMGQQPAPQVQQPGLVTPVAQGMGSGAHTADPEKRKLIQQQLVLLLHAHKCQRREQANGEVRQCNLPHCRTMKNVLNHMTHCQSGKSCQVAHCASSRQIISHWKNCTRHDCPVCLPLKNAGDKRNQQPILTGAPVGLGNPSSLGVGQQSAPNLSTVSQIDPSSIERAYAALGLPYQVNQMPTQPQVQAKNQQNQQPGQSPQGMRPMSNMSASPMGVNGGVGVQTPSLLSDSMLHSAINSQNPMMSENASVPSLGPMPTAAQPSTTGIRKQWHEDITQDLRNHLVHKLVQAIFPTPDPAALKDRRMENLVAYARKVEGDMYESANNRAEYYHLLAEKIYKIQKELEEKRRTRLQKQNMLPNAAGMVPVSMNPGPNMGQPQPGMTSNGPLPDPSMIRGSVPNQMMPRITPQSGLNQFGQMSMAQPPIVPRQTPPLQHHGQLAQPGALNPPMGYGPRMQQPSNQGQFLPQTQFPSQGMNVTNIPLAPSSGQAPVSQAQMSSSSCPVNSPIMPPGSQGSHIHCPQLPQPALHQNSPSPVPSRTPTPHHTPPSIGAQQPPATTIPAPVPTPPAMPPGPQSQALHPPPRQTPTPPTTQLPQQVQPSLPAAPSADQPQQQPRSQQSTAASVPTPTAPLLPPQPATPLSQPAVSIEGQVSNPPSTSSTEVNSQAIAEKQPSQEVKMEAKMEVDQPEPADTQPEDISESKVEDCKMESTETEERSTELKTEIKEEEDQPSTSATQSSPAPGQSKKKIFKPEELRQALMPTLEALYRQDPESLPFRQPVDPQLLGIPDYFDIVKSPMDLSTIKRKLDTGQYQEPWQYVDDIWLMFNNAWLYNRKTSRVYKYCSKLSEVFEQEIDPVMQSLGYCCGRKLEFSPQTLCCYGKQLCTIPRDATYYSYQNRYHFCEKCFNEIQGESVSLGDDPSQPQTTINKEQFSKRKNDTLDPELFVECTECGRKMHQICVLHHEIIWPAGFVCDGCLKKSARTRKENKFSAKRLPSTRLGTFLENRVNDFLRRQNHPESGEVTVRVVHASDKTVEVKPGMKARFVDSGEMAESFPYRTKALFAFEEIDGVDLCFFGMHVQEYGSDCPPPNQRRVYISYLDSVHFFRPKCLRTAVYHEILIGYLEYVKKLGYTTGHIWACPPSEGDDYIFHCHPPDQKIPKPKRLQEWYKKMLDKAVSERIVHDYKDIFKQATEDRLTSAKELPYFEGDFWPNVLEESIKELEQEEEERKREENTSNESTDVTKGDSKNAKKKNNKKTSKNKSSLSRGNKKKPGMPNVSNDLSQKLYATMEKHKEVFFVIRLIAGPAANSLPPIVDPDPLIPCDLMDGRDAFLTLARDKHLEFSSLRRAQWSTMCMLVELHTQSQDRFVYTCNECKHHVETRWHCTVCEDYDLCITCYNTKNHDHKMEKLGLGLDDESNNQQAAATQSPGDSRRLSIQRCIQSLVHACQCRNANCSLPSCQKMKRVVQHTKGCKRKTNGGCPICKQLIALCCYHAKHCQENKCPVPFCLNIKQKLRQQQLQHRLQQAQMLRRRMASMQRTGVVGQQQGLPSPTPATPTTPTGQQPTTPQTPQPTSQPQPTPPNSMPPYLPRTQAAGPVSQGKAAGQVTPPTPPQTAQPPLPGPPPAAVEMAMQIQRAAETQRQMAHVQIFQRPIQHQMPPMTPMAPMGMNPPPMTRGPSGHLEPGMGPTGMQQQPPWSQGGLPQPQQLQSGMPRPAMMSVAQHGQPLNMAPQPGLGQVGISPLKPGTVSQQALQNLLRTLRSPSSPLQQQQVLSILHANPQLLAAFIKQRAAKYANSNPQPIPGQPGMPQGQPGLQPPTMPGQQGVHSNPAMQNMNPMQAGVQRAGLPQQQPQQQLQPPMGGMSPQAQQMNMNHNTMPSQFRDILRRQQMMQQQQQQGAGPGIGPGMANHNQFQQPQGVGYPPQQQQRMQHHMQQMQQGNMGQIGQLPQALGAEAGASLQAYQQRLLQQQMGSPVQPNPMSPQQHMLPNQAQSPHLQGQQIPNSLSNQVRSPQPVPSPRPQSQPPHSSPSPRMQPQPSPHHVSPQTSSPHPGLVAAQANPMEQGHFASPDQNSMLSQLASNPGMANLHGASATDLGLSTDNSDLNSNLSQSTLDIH

SMILES: COc1ccc(S(=O)(=O)N(Cc2ccc3c(c2)C=CC(C)(C)O3)c2ccccc2)cc1OC
- Kd [1]: 0.345 µM
- Activity [2]: Active
- Activity [3]: Active
- Activity [4]: inactive
